The record followed here is patent US11998556B2, “Methods of treating parkinson's disease and/or lewy body disease or disorder(s)” (Athira Pharma, Inc., priority 2021, dated 2024).

A short description of data set [1]: Conversion of prodrug ATH-1017 to active drug ATH-1001 in the plasma after SC injection. The class given is in vivo. From the text: ATH-1017 is an experimental treatment for Lewy body disease or disorder(s) (LBD), including Parkinson's disease dementia (PDD) and/or dementia with Lewy bodies (DLB), formulated as a sterile solution for subcutaneous (SC) injection. […] ATH-1017 was developed as a water-soluble prodrug of ATH-1001 to allow SC dosing in aqueous vehicles. The active drug ATH-1001 acts as an agonist of the hepatocyte growth factor (HGF) receptor and its tyrosine kinase, MET in the brain. The HGF/MET system presents a new therapeutic target to treat neurodegeneration and restore cognitive, behavioral, functional and motor capacities in LBD such as PDD.

The nature of data set [2]: Nonclinical studies (hepatotoxicity risk). The class given is in vivo.
Data set [3] can be described thus: Phase 2 randomized, double-blind, placebo-controlled study in subjects with PDD inclusive of probable DLB. The class given is in vivo, human. The following applies: 40 mg/day or 70 mg/day SC OD, 26 weeks.
Description: The study is conducted at a total of approximately 15 centers in the USA and optionally Canada. Subjects and their caregivers are required to sign an informed consent form (ICF) and are evaluated against the inclusion/exclusion criteria during a screening period; all eligible subjects will have the option to be tested for glucocerebrosidase (GBA) genotype. Subjects who meet all inclusion/exclusion criteria will undergo baseline ERP P300 assessments at 2 separate baseline visits. At the first baseline assessment (Visit 2a, Pre-baseline, Day-10 to Day-3), ERP P300 is uploaded for quality check immediately after completion of the visit. […] At this Baseline visit (Visit 2b), subjects undergo pre-dose baseline and post-dose ERP P300. […] The first SC injection of study drug is performed on site under supervision. The subject should withhold study drug administration on the day of subsequent clinic visits; study drug administration is done on site under supervision of site staff at these visits. […] During the double-blind treatment period, clinic visits take place on Day 1 and thereafter at Weeks 2, 6, 12, 16, 20, and 26, with a safety follow-up visit scheduled 4 weeks after completion of the double-blind period at Week 30. On Day 1, after completion of the first dose, subjects remain on-site 2 hours for post-treatment clinical observation. […]
Data set [4] in a line: Clinical studies of ATH-1017: safety and tolerability of single and multiple SC administration. The format is in vivo, human.

Square brackets hold non-standard residues; d marks the D form. Peptide text beside a SMILES is read from it. * marks the point of attachment. pY = N[CH](Cc1ccc(OP(=O)(O)O)cc1)C(=O)O; Hexanoyl = CCCCCC(=O)*; Ahx = NCCCCCC(=O)O

With `CCCCCC(=O)NC(Cc1ccc(OP(=O)(O)O)cc1)C(=O)NC(C(=O)NCCCCCC(N)=O)C(C)CC` (stereo not shown) [ATH-1017] (Hexanoyl-[pY]-Ile-[Ahx]-NH2; configuration not given here), the “conversion of prodrug to active drug ATH-1001” value in data set [1] was “rapidly converted”. Moreover, the hepatotoxicity risk result in data set [2] is given as “potential risk for hepatotoxicity identified”. For the same compound, the safety and tolerability entry in data set [3] was “acceptable safety and tolerability”; in data set [4] (40 mg SC, OD, over 9 consecutive days, AD subjects) it was “safe and well tolerated”; in data set [4] (multiple administration of 20, 40, 60 and 80 mg SC, OD, over 9 consecutive days, healthy elderly subjects), “safe and well tolerated”; in data set [4] (single SC administration of 2, 6, 20, 40, 60 and 90 mg, healthy young subjects), “safe and well tolerated”. The “primary, secondary or exploratory endpoints (GST, ADAS-Cog13, ERP P300 latency etc.)” value in data set [3] (versus placebo) is on record as “achieves one or more of the primary, secondary, or exploratory endpoints”. In addition, in data set [4] (SC injection, human clinical studies, resolved without specific therapy), the “injection site reactions (pain, pruritus, erythema): severity” value is “mild in nature”. For the same compound, the hepatotoxicity entry in data set [4] (human studies) is on record as “has not been observed”. In data set [4] (humans, to date), the CNS-specific adverse events result is listed as “no CNS-specific adverse events have been observed”.
